Test results reported in PubChem BioAssay (NCI).
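Compound exposure: 48 hours, 5 concentrations, 96-well plates. Abbreviation: GI50, concentration required for 50% inhibition of growth. At the TGI there is no net growth.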

These compounds were tested on MDA-MB-468 breast (assay: NCI-60 cell line screen, 48 h).

First: O=C(NO)c1ccc(CN(c2cnccn2)c2cnccn2)cc1
Second: COc1ccc(Cc2cnc(NC(=O)c3ccc4c(c3)OCCO4)s2)cc1
The GI50 of the first is 280-fold higher: 10.5 µM for the first, 0.0376 µM for the second.

Compared with COc1ccc(-c2csc(NC(=O)CSc3nc(C)c(-c4ccccc4)n3Nc3ccccc3)n2)cc1, COc1ccc2c(Oc3ccc(NC(=O)c4c(C)n(CC(C)(C)O)n(-c5ccccc5)c4=O)nc3)ccnc2c1 is lower in GI50: > 100 µM for the first, 16.1 µM for the second.

Going from O=c1oc2ccc(Br)cc2c(=O)n1-c1ccc(F)cc1F to Nc1ccccc1SC1CC(=O)N(c2ccc(Cl)c(Cl)c2)C1=O (stereo unspecified), the GI50 rises from 2.09 µM to 18.4 µM (8.8-fold).

First: COc1c(O)c(O)cc2c1-c1ccc(OC)c(=O)cc1C(NC(C)=O)CC2 (stereo unspecified)
Second: COC(=O)CCC1=C(CC(=O)OC)C(C)=N/C1=C\c1[nH]c(-c2ccc[nH]2)cc1OC
The GI50 of the first is 4.9-fold higher: 16.9 µM for the first, 3.48 µM for the second.

Compared with Cc1c2ccncc2c(C)c2c1[nH]c1ccccc12, Cc1cc(C)n(-c2nnc3n2N=C(c2ccc(-c4ccccc4)cc2)CS3)n1 is 2-fold higher in GI50: 1.16 µM for the first, 2.27 µM for the second.

C[C@]12CC[C@@H]3c4ccc(O)c([N+](=O)[O-])c4CC[C@H]3[C@@H]1CC[C@@H]2NS(=O)(=O)c1cccc(Br)c1 and CN1CCN(c2ccc(Nc3ncc4cc(C#N)c(=O)n(C5CCCC5)c4n3)cc2)CC1 are within 1.5-fold of each other in GI50: 2.74 µM for the first, 3.46 µM for the second.

Going from O=C(Nc1ccc(Cl)c(Cl)c1)Nc1ccccc1O to N#Cc1ccc(OC(=O)Nc2ccc(Cl)c(Cl)c2)cc1, the GI50 falls from 6.26 µM to 3.13 µM (2-fold).

Going from O=C(N/N=C/c1c(Cl)cccc1Cl)c1ccc(C(F)(F)F)nc1Nc1cccc(C(F)(F)F)c1 to O=C(Nc1ccc(-n2cc(-c3ccncc3)c(-c3ccc(O)c(Cl)c3)n2)cc1)Nc1cccc(Cl)c1Cl, the GI50 rises from 0.52 µM to 9.23 µM (18-fold).

First: Cn1cc(-c2ccc(-c3cncc(Cl)c3N3CCC4(CCNC4=O)CC3)cc2)cn1
Second: CN1CCN(Cc2ccc(NC(=O)c3cncc(C#Cc4cnc5[nH]ncc5c4)c3)cc2C(F)(F)F)CC1
The GI50 of the first is 11-fold higher: 19.9 µM for the first, 1.74 µM for the second.

Compared with CC1C(c2ccc3c(c2)OCO3)c2cc3c(cc2OC1N1CCOCC1)OCO3 (stereo unspecified), Clc1cc(Cl)cc(Nc2ccc3cc(OCCCN4CCOCC4)ccc3n2)c1 is 8.9-fold lower in GI50: 19.6 µM for the first, 2.2 µM for the second.

Compared with Cn1c(=O)c2c(ncn2CC(=O)Nc2ccc(-c3ccccc3)nn2)n(C)c1=O, O=C1C(c2ccccc2)=C(N2CCc3ccccc32)OC1(Cl)Cl is 19-fold lower in GI50: 31.4 µM for the first, 1.63 µM for the second.

Going from O=C(CCCCCCNC(=O)C(O)(O)C(F)(F)F)Nc1ncc(-c2ccccc2)s1 to CCCCCc1ccc(S(=O)(=O)Nc2cc(-c3csc(NC(=O)CN4CCN(CCO)CC4)n3)ccc2OC)cc1, the GI50 rises from 0.748 µM to 1.75 µM (2.3-fold).

CCN(CC)c1cc2oc3cc(N)cc(=N)c-3nc2cc1C and COc1ccc2c(c1)c(-c1cc(N)n3nc(-c4cn(C)c5ccc(OC)cc45)cc3n1)cn2C are within 1.5-fold of each other in GI50: 2.59 µM for the first, 1.87 µM for the second.

First: O=C(N/N=C/c1ccc([N+](=O)[O-])o1)c1ccc(O)cc1
Second: COc1ccc(/C=C(/c2ccccc2)[N+](=O)[O-])cc1
The GI50 of the first is 1.7-fold higher: 2.44 µM for the first, 1.46 µM for the second.

Compared with CCCCCCCCCCN1CCC(N2CCCCC2)CC1, CCCCCc1ccc(S(=O)(=O)Nc2cc(-c3csc(NC(C)=O)n3)ccc2N2CCN(C)CC2)cc1 is 2.6-fold higher in GI50: 1.44 µM for the first, 3.73 µM for the second.

Going from COc1ccc2c(c1)C(C)Cc1c(ncnc1-n1cnc3cc(C)ccc31)N2C (stereo unspecified) to O=C(OCc1ccc2c(Cl)cc(Cl)c(O)c2n1)N1CCN(C(=O)c2cc3cc(F)ccc3[nH]2)CC1, the GI50 rises from 0.0341 µM to 0.558 µM (16-fold).

First: C/C(=N\NC(=S)N1CC2CCC(CC2)C1)c1ccccn1
Second: NC(=S)N/N=C/c1cc(-c2cccc(N)c2)ccn1
The GI50 of the first is lower: < 0.01 µM for the first, 1.43 µM for the second.

Going from COC[C@]12CC[C@@H](C)[C@H](C)[C@H]1C1=CC[C@@H]3[C@@]4(C)CCCNC(C)(C)[C@@H]4CC[C@@]3(C)[C@]1(C)CC2 to COC(C(=O)[C@@H](O)[C@@H](C)O)[C@@H]1Cc2cc3cc(O[C@H]4C[C@@H](O[C@H]5C[C@@H](O)[C@H](O)C(C)O5)[C@H](O)C(C)O4)c(C)c(O)c3c(O)c2C(=O)[C@H]1O[C@H]1C[C@@H](O[C@H]2C[C@@H](O[C@H]3C[C@@H](O)[C@H](OC)C(C)O3)[C@@H](O)C(C)O2)[C@H](O)C(C)O1 (stereo partly specified), the GI50 falls from 1.71 µM to 0.0329 µM (52-fold).

First: O=C(NCc1ccc(S(=O)(=O)c2cc(F)cc(F)c2)cc1)c1ccc2nccn2c1
Second: CC/C=C/C/C=C/C/C=C/C/C=C/C/C=C/C/C=C/CCC(=O)Nc1ccn([C@@H]2O[C@H](CO)[C@@H](O)C2(F)F)c(=O)n1
The GI50 of the first is 24-fold higher: 9.27 µM for the first, 0.384 µM for the second.

O=C(NO)c1ccc(CN(c2cnccn2)c2cnccn2)cc1 and COc1ccc(Cc2cnc(NC(=O)c3ccc4c(c3)OCCO4)s2)cc1 are within 1.5-fold of each other in TGI: 28.4 µM for the first, 24.7 µM for the second.

COc1ccc(-c2csc(NC(=O)CSc3nc(C)c(-c4ccccc4)n3Nc3ccccc3)n2)cc1 and COc1ccc2c(Oc3ccc(NC(=O)c4c(C)n(CC(C)(C)O)n(-c5ccccc5)c4=O)nc3)ccnc2c1 cannot be ordered by TGI: > 100 µM for the first, > 96.6 µM for the second.

Going from O=c1oc2ccc(Br)cc2c(=O)n1-c1ccc(F)cc1F to Nc1ccccc1SC1CC(=O)N(c2ccc(Cl)c(Cl)c2)C1=O (stereo unspecified), the TGI rises from 5.92 µM to > 100 µM.

Compared with COc1c(O)c(O)cc2c1-c1ccc(OC)c(=O)cc1C(NC(C)=O)CC2 (stereo unspecified), COC(=O)CCC1=C(CC(=O)OC)C(C)=N/C1=C\c1[nH]c(-c2ccc[nH]2)cc1OC is lower in TGI: > 100 µM for the first, 17 µM for the second.

Cc1c2ccncc2c(C)c2c1[nH]c1ccccc12 and Cc1cc(C)n(-c2nnc3n2N=C(c2ccc(-c4ccccc4)cc2)CS3)n1 are within 1.5-fold of each other in TGI: 8.74 µM for the first, 6.76 µM for the second.

Compared with C[C@]12CC[C@@H]3c4ccc(O)c([N+](=O)[O-])c4CC[C@H]3[C@@H]1CC[C@@H]2NS(=O)(=O)c1cccc(Br)c1, CN1CCN(c2ccc(Nc3ncc4cc(C#N)c(=O)n(C5CCCC5)c4n3)cc2)CC1 is higher in TGI: 7.69 µM for the first, > 100 µM for the second.

First: O=C(Nc1ccc(Cl)c(Cl)c1)Nc1ccccc1O
Second: N#Cc1ccc(OC(=O)Nc2ccc(Cl)c(Cl)c2)cc1
The TGI of the first is 2.1-fold higher: 33.6 µM for the first, 15.9 µM for the second.

Going from O=C(N/N=C/c1c(Cl)cccc1Cl)c1ccc(C(F)(F)F)nc1Nc1cccc(C(F)(F)F)c1 to O=C(Nc1ccc(-n2cc(-c3ccncc3)c(-c3ccc(O)c(Cl)c3)n2)cc1)Nc1cccc(Cl)c1Cl, the TGI rises from 3.62 µM to > 32.5 µM.

Going from Cn1cc(-c2ccc(-c3cncc(Cl)c3N3CCC4(CCNC4=O)CC3)cc2)cn1 to CN1CCN(Cc2ccc(NC(=O)c3cncc(C#Cc4cnc5[nH]ncc5c4)c3)cc2C(F)(F)F)CC1, the TGI falls from > 100 µM to 13.5 µM.

Compared with CC1C(c2ccc3c(c2)OCO3)c2cc3c(cc2OC1N1CCOCC1)OCO3 (stereo unspecified), Clc1cc(Cl)cc(Nc2ccc3cc(OCCCN4CCOCC4)ccc3n2)c1 is 9.7-fold lower in TGI: 60.3 µM for the first, 6.23 µM for the second.

First: Cn1c(=O)c2c(ncn2CC(=O)Nc2ccc(-c3ccccc3)nn2)n(C)c1=O
Second: O=C1C(c2ccccc2)=C(N2CCc3ccccc32)OC1(Cl)Cl
The TGI of the first is higher: > 100 µM for the first, 3.25 µM for the second.

Compared with O=C(CCCCCCNC(=O)C(O)(O)C(F)(F)F)Nc1ncc(-c2ccccc2)s1, CCCCCc1ccc(S(=O)(=O)Nc2cc(-c3csc(NC(=O)CN4CCN(CCO)CC4)n3)ccc2OC)cc1 is 3-fold lower in TGI: 10.9 µM for the first, 3.6 µM for the second.

Going from CCN(CC)c1cc2oc3cc(N)cc(=N)c-3nc2cc1C to COc1ccc2c(c1)c(-c1cc(N)n3nc(-c4cn(C)c5ccc(OC)cc45)cc3n1)cn2C, the TGI falls from 9.37 µM to 3.66 µM (2.6-fold).

Going from O=C(N/N=C/c1ccc([N+](=O)[O-])o1)c1ccc(O)cc1 to COc1ccc(/C=C(/c2ccccc2)[N+](=O)[O-])cc1, the TGI falls from 10.7 µM to 3.31 µM (3.2-fold).

First: CCCCCCCCCCN1CCC(N2CCCCC2)CC1
Second: CCCCCc1ccc(S(=O)(=O)Nc2cc(-c3csc(NC(C)=O)n3)ccc2N2CCN(C)CC2)cc1
The TGI of the first is 2.8-fold lower: 3.01 µM for the first, 8.42 µM for the second.

Going from COc1ccc2c(c1)C(C)Cc1c(ncnc1-n1cnc3cc(C)ccc31)N2C (stereo unspecified) to O=C(OCc1ccc2c(Cl)cc(Cl)c(O)c2n1)N1CCN(C(=O)c2cc3cc(F)ccc3[nH]2)CC1, the TGI rises from 18.9 µM to > 27.9 µM.

Compared with C/C(=N\NC(=S)N1CC2CCC(CC2)C1)c1ccccn1, NC(=S)N/N=C/c1cc(-c2cccc(N)c2)ccn1 is 43-fold higher in TGI: 0.104 µM for the first, 4.49 µM for the second.

First: COC[C@]12CC[C@@H](C)[C@H](C)[C@H]1C1=CC[C@@H]3[C@@]4(C)CCCNC(C)(C)[C@@H]4CC[C@@]3(C)[C@]1(C)CC2
Second: COC(C(=O)[C@@H](O)[C@@H](C)O)[C@@H]1Cc2cc3cc(O[C@H]4C[C@@H](O[C@H]5C[C@@H](O)[C@H](O)C(C)O5)[C@H](O)C(C)O4)c(C)c(O)c3c(O)c2C(=O)[C@H]1O[C@H]1C[C@@H](O[C@H]2C[C@@H](O[C@H]3C[C@@H](O)[C@H](OC)C(C)O3)[C@@H](O)C(C)O2)[C@H](O)C(C)O1 (stereo partly specified)
The TGI of the first is 13-fold higher: 3.43 µM for the first, 0.259 µM for the second.

O=C(NCc1ccc(S(=O)(=O)c2cc(F)cc(F)c2)cc1)c1ccc2nccn2c1 and CC/C=C/C/C=C/C/C=C/C/C=C/C/C=C/C/C=C/CCC(=O)Nc1ccn([C@@H]2O[C@H](CO)[C@@H](O)C2(F)F)c(=O)n1 cannot be ordered by TGI: > 100 µM for the first, > 64.6 µM for the second.
